One may read the IC50 as the concentration that inhibits the measured activity by half.

The structures appear in SMILES notation. Active and inactive are the calls of the source. The rule behind the calls is not given here. Some results are limits rather than exact numbers.

Ribonuclease HI (Escherichia coli (strain K12)), sequence (P0A7Y4 whole entry, looked up): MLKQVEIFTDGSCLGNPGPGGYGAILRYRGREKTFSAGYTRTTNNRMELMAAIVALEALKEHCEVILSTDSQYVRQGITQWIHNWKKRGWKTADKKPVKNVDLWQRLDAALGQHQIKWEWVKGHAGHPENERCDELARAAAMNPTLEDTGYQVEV

The test addresses Ribonuclease HI (Escherichia coli (strain K12)) (UniProt P0A7Y4). Nature of the test: inhibition of bacterial ribonuclease H activity – biochemical, FRET RNA/DNA duplex cleavage, dose response (AID 365). The following applies: E. coli RNase H, FRET RNA/DNA cleavage fluorescence.
Turning to `CCOc1ccc(C(=O)Nc2ccc3c(c2)C(=O)c2ccccc2C3=O)cc1`, the IC50 was 4 µM.

For `CCOc1ccc(N2C(=O)/C(=C/c3ccc(I)o3)C(=O)NC2=S)cc1`, the IC50 was 2.4 µM.

With `Cc1cccc(NCC(=O)N/N=C\c2c(Br)cc(Br)c(O)c2Br)c1`, the IC50 entry was “inactive”.

Take `Nc1cc(S(N)(=O)=O)ccc1SSc1ccc(S(N)(=O)=O)cc1N`: the IC50 is > 100 µM (inactive).

Consider `O=C1NC(=S)N(c2ccc(Cl)cc2)C(=O)/C1=C\C=C\c1ccccc1[N+](=O)[O-]`, for which the IC50 is 8.8 µM.

Regarding `CC(C)c1cccc(O)c(=O)c1`, the IC50 is > 100 µM (inactive).

Turning to `O=C(Oc1ccccc1)Oc1c(Cl)cc2oc(=O)sc2c1Cl`, the IC50 is 7.8 µM.

For the compound `COC(=O)c1cc2c3c(ccc2[nH]1)N(C(=O)c1cc2c4c(ccc2[nH]1)N(C(=O)c1cc2c5c(ccc2[nH]1)N(C(N)=O)CC5)CC4)CC3`, the IC50 result is “inactive”.

With `O=C1NC(=S)N(c2ccccc2F)C(=O)C1=Cc1ccco1`, the IC50 was 1.1 µM.

As for `CC1=NN(c2ccc(S(N)(=O)=O)cc2)C(=O)/C1=C/c1ccc(-c2ccc(Cl)cc2Cl)o1`, the IC50 is 9 µM.

As to `Ic1ccc2c(c1)N(c1ccccc1)c1cc(N=c3ccc4nc5ccc(I)cc5n(-c5ccccc5)c-4c3)ccc1N2`, the concentration for half-maximal inhibition (IC50) is 4.1 µM.

Take `C[C@@H]1[C@H](O)c2c(c3c(c4c(-c5ccccc5)cc(=O)oc24)OC(C)(C)C=C3)O[C@@H]1C`: the IC50 was 8 µM.

For `CC1C2C=CC1C(c1c3ccc(=O)c(O)c-3oc3c(O)c(O)ccc13)C2C(=O)O` (stereo not given), the half-inhibitory concentration (IC50) is 1.3 µM.

On to `CN(C)S(=O)(=O)c1ccc(Nc2ccc(O)c3c2C(=O)c2c([N+](=O)[O-])ccc(O)c2C3=O)cc1`, for which the IC50 is 8 µM.

Turning to `O=C(O)C1CCCCC1c1c2ccc(=O)c(O)c-2oc2c(O)c(O)ccc12` (stereo not given), the IC50 was 2 µM.

`COc1ccc(N2C(=O)/C(=C\c3cn(CC(=O)Nc4ccccc4)c4ccccc34)C(=O)NC2=S)cc1`: the half-maximal inhibitory concentration (IC50) is 2.2 µM.

For the compound `O=C1O/C(=C(/C(=O)O)c2ccc(O)cc2)C(O)=C1c1cc2c3c(c(O)cc(C4=C(O)/C(=C(\C(=O)O)c5ccc(O)cc5)OC4=O)c3c1)OC2=O`, the IC50 result was “inactive”.

`O=C1C=CC(=NS(=O)(=O)c2ccc(Cl)c([N+](=O)[O-])c2)C=C1`: the IC50 was 7 µM.

Regarding `O=C1Nc2ccc(I)cc2C1(O)N1CCOCC1` (stereo not given), the half-maximal inhibitory concentration (IC50) is 0.8 µM.

On to `CCOc1ccc(C2=CC(=O)C=CC2=O)cc1`, for which the IC50 result was “inactive”.

Consider `COc1ccccc1NC(=O)c1c(NC(=O)Cc2ccccc2)sc2c1CCCCC2`, for which the half-maximal inhibitory concentration (IC50) was 0.26 µM.

As for `O=C1C(Cl)=C(NC(=O)c2ccccc2)C(=O)C(Cl)=C1NC(=O)c1ccccc1`, the IC50 is > 100 µM (inactive).

As for `O=C1/C(=C/c2ccc(O)c(O)c2)SC(=S)N1c1ccc(O)cc1`, the IC50 is 8 µM.

Consider `S=C(Nc1ccc2c(c1)Cc1ccccc1-2)Nc1ccc2c(c1)Cc1ccccc1-2`, for which the IC50 was 4 µM.

Turning to `N#Cc1c(NC(=O)C(F)(F)F)sc2c3c(=O)c4ccccc4c(=O)c=3oc3ccccc3c12`, the IC50 result was “inactive”.

Turning to `Oc1ccc2ccccc2c1C=NCc1c(O)ccc2ccccc12`, the IC50 result is “inactive”.

Take `O=[N+]([O-])c1ccc2c(N=Nc3ccc4ccccc4c3O)c(O)cc(S(=O)(=O)O)c2c1`: the 50% inhibitory concentration (IC50) is 3 µM.

Regarding `COc1cc(-c2[o+]c3cc(O)cc(O)c3cc2O)cc(O)c1O`, the IC50 result is “inactive”.

Take `O=C(NC(=S)Nc1cc(-c2nc3ccccc3s2)ccc1Cl)c1ccc(F)cc1`: the 50% inhibitory concentration (IC50) is 6 µM.

Turning to `CC1=C(C)CC(C(=O)Nc2ccc(N3C(=O)c4ccccc4C3=O)cc2)C(C(=O)O)C1` (stereo not given), the IC50 is > 100 µM (inactive).

In the case of `O=C1c2ccccc2C(=O)N1c1ccc(-c2nc3ccc(N4C(=O)c5ccccc5C4=O)cc3[nH]2)cc1`, the half-inhibitory concentration (IC50) was 5 µM.

Consider `NCC[Se][Se]CCN`, for which the IC50 was > 100 µM (inactive).

As for `COc1ccc(NC(=O)c2c(N)sc(-c3ccccc3)c2C)cc1`, the half-inhibitory concentration (IC50) was 2 µM.

Regarding `O=C1c2ccccc2C(=O)c2c1cc(O)c(O)c2O`, the IC50 entry was “inactive”.

On to `Oc1cc(O)c2c(c1)OC(c1ccc(O)c(O)c1)C(OC1(c3cc(O)c(O)c(O)c3)Oc3cc(O)cc(O)c3C(O)C1O)C2` (stereo not given), for which the IC50 is > 100 µM (inactive).

For `O=C(CSc1nc2ccccc2s1)c1sc2sc3ccccc3[n+]2c1[O-]`, the IC50 is 0.6 µM.

Consider `Cc1ccc(S(=O)(=O)N=C2C=C(Cl)C(=O)C(Br)=C2)cc1`, for which the IC50 result is “inactive”.

Take `O=C1C(Cl)=C/C(=N\S(=O)(=O)c2ccc(Cl)cc2)C(Cl)=C1Cl`: the IC50 entry was “inactive”.

Turning to `Cc1c(Cl)ccc2c1NC(C(=O)O)C1CC=CC21` (stereo not given), the IC50 was 6.8 µM.

Regarding `COc1ccc2oc(=O)c(-c3csc(Nc4ccc(Br)cc4)n3)cc2c1`, the 50% inhibitory concentration (IC50) was 2.8 µM.

Turning to `NC(=O)c1c(N)sc2c1CCCCC2`, the IC50 was > 100 µM (inactive).

In the case of `O=c1c(O)c(-c2cc(O)c(O)c(O)c2)oc2cc(O)cc(O)c12`, the IC50 result was “inactive”.

Turning to `O=C1CC(=O)c2ccc3c4c(ccc1c24)C(=O)CC3=O`, the IC50 is 5.2 µM.

In the case of `O=[N+]([O-])c1ccc(S(=O)(=O)Cc2ccccc2)c2nonc12`, the IC50 entry was “inactive”.

As for `CC(C)=CCc1ccc(O)c(=O)cc1C(C)C`, the IC50 was 100 µM.

As to `O=C1/C(=C/c2ccc(O)c(O)c2)SC(=S)N1C1CCCCC1`, the 50% inhibitory concentration (IC50) is 3 µM.

`C=CCn1c(N)c(-c2nc3ccccc3[nH]2)sc1=S`: the IC50 result was “inactive”.

As to `O=[N+]([O-])c1c(Cl)cccc1-c1c[nH]cc1Cl`, the IC50 is > 100 µM (inactive).

On to `COc1ccc(N2C(=O)/C(=C/c3ccc(I)o3)C(=O)NC2=S)cc1`, for which the half-inhibitory concentration (IC50) is 3 µM.

With `O=C1/C(=C\c2ccc(O)c(O)c2)SC(=S)N1c1cccc(Cl)c1`, the concentration for half-maximal inhibition (IC50) is 2.9 µM.

As for `C=C/C(C)=C/C[C@]1(C)[C@H](C)CC[C@@]23C(=C[C@H](OC(=O)c4ccc(O)c(OC)c4)C[C@@H]12)[C@@H](OC(C)=O)O[C@H]3OC(C)=O`, the IC50 entry was “inactive”.

For the compound `c1ccc(C(c2cccc3c2ccc2ccccc23)C(c2ccccc2)c2cccc3c2ccc2ccccc23)cc1` (stereo not given), the IC50 is 7.5 µM.

On to `COc1ccccc1N=C(NOCc1ccc(Cl)cc1Cl)c1nonc1N`, for which the IC50 entry was “inactive”.

For the compound `NC(=O)c1c(NC(=O)COc2ccccc2)sc2c1CCCCC2`, the half-maximal inhibitory concentration (IC50) was 2 µM.

For the compound `CCCc1cc(=O)oc2c3c(c4c(c12)OC(C)(C)C=C4)O[C@H](C)[C@@H](C)[C@H]3OC`, the IC50 result is “inactive”.

As for `C=C1C(=O)O[C@@H]2/C=C(\C)CC/C=C(\C(=O)O)CC/C=C(\C)CC[C@H]12`, the IC50 is > 100 µM (inactive).

As for `Nc1nc(Sc2ccc([N+](=O)[O-])c3nonc23)c2[nH]cnc2n1`, the IC50 is > 100 µM (inactive).

Take `O=C1C=CC(=O)C(c2cc(Cl)ccc2Cl)=C1`: the IC50 was 9.2 µM.

`Cc1sc(NC(=O)C2CCCO2)c(C(N)=O)c1C` (stereo not given): the IC50 was > 100 µM (inactive).

As for `CC1=c2c(oc3cc(O)c(Nc4c(C)cc(O)cc4O)c(C)c23)=CC(=O)C1=Nc1c(C)cc(O)cc1O`, the IC50 is 5.2 µM.

Take `Cc1sc(NC(=O)Cc2ccccc2)c(C(N)=O)c1C`: the IC50 entry is “inactive”.

Regarding `Cc1ccc(C(=O)Nc2sc(C)c(C)c2C(N)=O)cc1`, the IC50 was 2.2 µM.

`CCOc1cccc(N2C(=O)/C(=C/c3cn(CC(=O)OC)c4ccccc34)C(=O)NC2=S)c1`: the 50% inhibitory concentration (IC50) is 6.2 µM.

Turning to `O=C(N/N=C/c1ccc(/C=N/NC(=O)c2ccc(O)c(O)c2)cc1)c1ccc(O)c(O)c1`, the IC50 is 2.1 µM.

Take `CCOC(=O)Oc1c(OC)cc(C(=O)O[C@@H]2C[C@@H]3CN4CCc5c([nH]c6cc(OC)ccc56)[C@H]4C[C@@H]3[C@H](C(=O)OC)[C@H]2OC)cc1OC`: the IC50 was > 100 µM (inactive).

For the compound `O=C1C=CC2=C3c4cc(O)c(O)cc4CC3(O)COC2=C1O` (stereo not given), the IC50 entry is “inactive”.

In the case of `C[C@H]1[C@H](O)c2c(c3c(c4c(-c5ccccc5)cc(=O)oc24)OC(C)(C)C=C3)O[C@@H]1C`, the IC50 was > 100 µM (inactive).

As for `O=C1c2ccc(O)cc2C(=O)c2c1ccc(O)c2O`, the IC50 entry is “inactive”.

Take `Cc1cc(C)c2c(=O)[nH]c(SCC(=O)c3ccc(O)c(O)c3)nc2n1`: the half-maximal inhibitory concentration (IC50) is 18 µM.

`CC(=O)/C=C/C=C/c1ccc2c(c1)OC(CO)C(c1ccc(O)c(O)c1)O2` (stereo not given): the IC50 result was “inactive”.

`CCCCCCCCCCCCCCCCCCOCC(O)CO` (stereo not given): the IC50 is > 100 µM (inactive).

`CC(C)c1ccc(O)c(O)c(=O)c1` (tested in a mixture with another compound): the IC50 result is “inactive”.

Turning to `CCCCCCCCCCCCCCCC(=O)OCC1OC(n2ccc(N)nc2=O)C(O)C1O` (stereo not given), the IC50 was 0.64 µM.

In the case of `Oc1c(Br)cc(/C=N/Nc2nnc3c(n2)[nH]c2ccccc23)c(Br)c1O`, the IC50 is 4.3 µM.

For `Cc1ccc(S(=O)(=O)N=C2C=CC(=O)C=C2)c(C)c1`, the IC50 is 7.8 µM.

`O=C1c2ccccc2C(=O)c2c(O)c(O)cc(O)c21`: the IC50 result was “inactive”.

Consider `CN(C)CN1CSC(=S)N(CN(C)C)C1`, for which the IC50 entry was “inactive”.

As for `CC(C)=Cc1cc(CCC/C(C)=C/Cc2c(O)cc(C)c(C(=O)O)c2O)co1`, the IC50 result is “inactive”.

`CC(=O)O[C@H](C)[C@@H]1C2=C(C(=O)C[C@]1(C)O)C(=O)c1c(ccc(-c3ccc4c(c3O)C(=O)C3=C(C4=O)[C@@H]([C@@H](C)OC(C)=O)[C@@](C)(O)CC3=O)c1O)C2=O`: the IC50 is > 100 µM (inactive).

For the compound `COC([CH2][Hg][n]1cnc2c1c(=O)n(C)c(=O)n2C)CN1C(=O)c2ccccc2S1(=O)=O` (stereo not given), the IC50 entry is “inactive”.

`O=C1C(Cl)=C(Nc2ccc(S(=O)(=O)Nc3ccccn3)cc2)C(=O)c2ccccc21`: the IC50 was 80 µM.

On to `Cc1cc(I)c2c(c1)C1C=CCC1C(C(=O)O)N2` (stereo not given), for which the IC50 result was “inactive”.

For the compound `C=C(CCC(C(=O)O)C1CCC2(C)C3=C(CCC12C)C1(C)CCC(O)C(C)(C)C1CC3)C(C)C` (stereo not given), the 50% inhibitory concentration (IC50) was 9 µM.

Take `COC(=O)c1cc2cc3cc4cc(CC(=O)O)c(C(=O)/C=C(\O)c5ccccc5O)c(OC)c4c(OC)c3c(O)c2c(=O)o1`: the IC50 entry was “inactive”.

For the compound `O=S(=O)(O)c1cc(N=[N+]([O-])c2cc(S(=O)(=O)O)c3ccccc3c2)cc2ccccc12`, the IC50 was 0.7 µM.

(Values after PubChem BioAssay AID365 (MTDP, 2006).)
